Source: the supplement of paper PMC10307832

Tests used:
Experiment in all cases: relative viability (nuclei count vs DMSO), 5 days (fraction); higher = more cells survive
AZ505 + Tozasertib = compound: C1CCC(CC1)N(CCNCCC2=C3C(=C(C=C2)O)NC(=O)CO3)C(=O)CCNCCC4=CC(=C(C=C4)Cl)Cl [AZ505] + Cc1cc(Nc2cc(N3CCN(C)CC3)nc(Sc3ccc(NC(=O)C4CC4)cc3)n2)n[nH]1 [Tozasertib] (partner 0.1 µM)
How it was run: (§1)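 Five library-drug doses in √10 steps were combined with a fixed anchor-drug dose, or a single drug was given alone, by pin tool to lung cancer cell lines in 1536-well plates the day after seeding. Nuclei were stained and counted after 5 days. Relative viability is the nuclei count in treated wells over that in vehicle wells, taken as the median of duplicate plates.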

AZ505 + AZD7762 = compound: C1CCC(CC1)N(CCNCCC2=C3C(=C(C=C2)O)NC(=O)CO3)C(=O)CCNCCC4=CC(=C(C=C4)Cl)Cl [AZ505] + NC(=O)Nc1cc(-c2cccc(F)c2)sc1C(=O)N[C@H]1CCCNC1 [AZD7762] (partner 0.2 µM)
How it was run: as §1

AZ505 + OSI-027 = compound: C1CCC(CC1)N(CCNCCC2=C3C(=C(C=C2)O)NC(=O)CO3)C(=O)CCNCCC4=CC(=C(C=C4)Cl)Cl [AZ505] + COc1cccc2cc(-c3nc([C@H]4CC[C@H](C(=O)O)CC4)n4ncnc(N)c34)[nH]c12 [OSI-027] (partner 0.5 µM)
How it was run: as §1

Dactolisib + Alpelisib = compound: Cn1c(=O)n(-c2ccc(C(C)(C)C#N)cc2)c2c3cc(-c4cnc5ccccc5c4)ccc3ncc21 [Dactolisib] + Cc1nc(NC(=O)N2CCC[C@H]2C(N)=O)sc1-c1ccnc(C(C)(C)C(F)(F)F)c1 [Alpelisib] (partner 2 µM)
How it was run: as §1

Row | Cell Line | relative viability (AZ505 + Tozasertib; first compound 0.08 µM) | relative viability (AZ505 + Tozasertib; first compound 0.253 µM) | relative viability (AZ505 + Tozasertib; first compound 0.8 µM) | relative viability (AZ505 + Tozasertib; first compound 2.53 µM) | relative viability (AZ505 + Tozasertib; first compound 8 µM) | relative viability (AZ505 + AZD7762; first compound 0.08 µM) | relative viability (AZ505 + AZD7762; first compound 0.253 µM) | relative viability (AZ505 + AZD7762; first compound 0.8 µM) | relative viability (AZ505 + AZD7762; first compound 2.53 µM) | relative viability (AZ505 + AZD7762; first compound 8 µM) | relative viability (AZ505 + OSI-027; first compound 0.08 µM) | relative viability (AZ505 + OSI-027; first compound 0.253 µM) | relative viability (AZ505 + OSI-027; first compound 0.8 µM) | relative viability (AZ505 + OSI-027; first compound 2.53 µM) | relative viability (AZ505 + OSI-027; first compound 8 µM) | relative viability (Dactolisib + Alpelisib; first compound 0.002 µM) | relative viability (Dactolisib + Alpelisib; first compound 0.006325 µM) | relative viability (Dactolisib + Alpelisib; first compound 0.02 µM) | relative viability (Dactolisib + Alpelisib; first compound 0.06325 µM) | relative viability (Dactolisib + Alpelisib; first compound 0.2 µM)
1 | HCC-15 | 0.363 | 0.299 | 0.36 | 0.344 | 0.322 | 0.711 | 1.24 | 1.24 | 1.13 | 1.42 | 0.612 | 0.624 | 0.596 | 0.594 | 0.726 | 0.941 | 0.832 | 0.874 | 0.417 | 0.38
2 | HCC-44 | 0.887 | 0.992 | 0.922 | 0.88 | 1.04 | 1 | 0.964 | 0.916 | 1.03 | 1.02 | 0.468 | 0.594 | 0.534 | 0.639 | 0.486 | 0.907 | 0.722 | 0.601 | 0.337 | 0.3
3 | HCC-78 | 0.351 | 0.65 | 0.381 | 0.312 | 0.345 |  |  | 0.75 | 0.719 | 0.558 | 0.386 | 0.33 | 0.37 | 0.438 | 0.466 | 0.358 | 0.33 | 0.282 | 0.247 | 0.198
4 | NCI-H727 | 0.645 | 0.53 | 0.525 |  | 0.581 | 0.661 | 0.418 | 0.582 | 0.512 | 0.76 | 0.388 | 0.576 | 0.517 |  | 0.651 | 0.601 | 0.525 | 0.4 | 0.291 | 0.304
5 | NCI-H2087 | 0.223 | 0.181 | 0.244 | 0.241 | 0.245 | 1.22 | 1.24 | 1.35 | 1.15 | 1.24 | 0.403 | 0.368 | 0.595 | 0.518 | 0.728 | 1.17 | 0.994 | 0.805 | 0.574 | 0.668
6 | BEN | 0.443 | 0.545 | 0.458 | 0.504 | 0.426 | 0.594 | 0.433 | 0.621 | 0.758 | 0.759 | 0.287 | 0.274 | 0.259 | 0.304 | 0.309 | 1.01 | 0.89 | 0.808 | 0.47 | 0.277
7 | LCLC-103H | 0.508 | 0.504 | 0.434 | 0.461 | 0.459 | 0.711 | 0.719 | 0.665 | 0.647 | 0.718 | 0.447 | 0.472 | 0.447 | 0.496 | 0.476 | 1.01 | 0.943 | 0.95 | 0.673 | 0.539
8 | EKVX | 0.372 | 0.354 | 0.435 | 0.38 | 0.378 |  | 0.629 | 0.849 | 0.678 | 0.746 | 0.674 | 0.714 | 0.684 | 0.645 | 0.717 | 0.937 | 0.878 | 0.759 | 0.463 | 0.369
